# Measured values published in the supplement of paper PMC5579334.
# ± gives the standard deviation of the averaged measurements.
# Assays:
# [1] = system: S1507-2; experiment: % inhibition of CellTiter-Glo viability at highest tested concentration (72 h), relative to DMSO and benzethonium chloride controls; higher = more inhibition
# Summary of the method: (§1)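 After seeding 750–1000 cells per well of MPNST cell lines or primary human Schwann cells into 384-well plates preprinted with each compound at five concentrations in 10-fold steps, plates were kept 72 h at 37 °C, 5% CO2. Viability was read as CellTiter-Glo ATP luminescence relative to vehicle and positive-control wells, with duplicates averaged where present. The data were fitted with four-parameter logistic models. Drug sensitivity score and relative IC50, censored at the top concentration, derive from the fits, and percent inhibition refers to the top concentration.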
# [2] = system: HS-Sch-2; experiment: as above
# Summary of the method: as §1
# [3] = system: STS26T; experiment: as above
# Summary of the method: as §1
# [4] = system: S462; experiment: as above
# Summary of the method: as §1
# [5] = system: YST-1; experiment: as above
# Summary of the method: as §1
# [6] = system: ST8814; experiment: as above
# Summary of the method: as §1
# [7] = system: HSC2 (primary human Schwann cells); experiment: as above
# Summary of the method: as §1
# [8] = system: HS-PSS; experiment: as above
# Summary of the method: as §1
# [9] = system: HSC1 (primary human Schwann cells); experiment: as above
# Summary of the method: as §1
# [10] = system: S1507-2; experiment: drug sensitivity score (DSS, CellTox-Green cytotoxicity, 72 h) (DSS (dimensionless)); higher = more cytotoxic; extreme values may be limits of the assay
# Summary of the method: (§2)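 For 72 h at 37 °C, MPNST cell lines and primary human Schwann cells were exposed in 384-well plates to five 10-fold compound dilutions. CellTox-Green, added before seeding at a final 1:1000 dilution, gave fluorescence from DNA released by disrupted cells. Signals were scaled to vehicle and positive-control wells, cultures failing plate quality control were left out, and four-parameter logistic fits were applied. Relative IC50 and drug sensitivity score were derived from the fits, with IC50 censored at the top concentration.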
# [11] = system: STS26T; experiment: as above
# Summary of the method: as §2
# [12] = system: ST8814; experiment: as above
# Summary of the method: as §2
# [13] = system: HSC2 (primary human Schwann cells); experiment: as above
# Summary of the method: as §2
# [14] = system: HS-PSS; experiment: as above
# Summary of the method: as §2
# [15] = system: HSC1 (primary human Schwann cells); experiment: as above
# Summary of the method: as §2
# [16] = system: S1507-2; experiment: drug sensitivity score (DSS, CellTiter-Glo viability, 72 h) (DSS (dimensionless)); higher = more sensitive; extreme values may be limits of the assay
# Summary of the method: as §1
# [17] = system: HS-Sch-2; experiment: as above
# Summary of the method: as §1
# [18] = system: STS26T; experiment: as above
# Summary of the method: as §1
# [19] = system: S462; experiment: as above
# Summary of the method: as §1
# [20] = system: YST-1; experiment: as above
# Summary of the method: as §1
# [21] = system: ST8814; experiment: as above
# Summary of the method: as §1
# [22] = system: HSC2 (primary human Schwann cells); experiment: as above
# Summary of the method: as §1
# [23] = system: HS-PSS; experiment: as above
# Summary of the method: as §1
# [24] = system: HSC1 (primary human Schwann cells); experiment: as above
# Summary of the method: as §1
Structure (SMILES),% inhibition [1] [%],% inhibition [2] [%],% inhibition [3] [%],% inhibition [4] [%],% inhibition [5] [%],% inhibition [6] [%],% inhibition [7] [%],% inhibition [8] [%],% inhibition [9] [%],drug sensitivity score [10],drug sensitivity score [11],drug sensitivity score [12],drug sensitivity score [13],drug sensitivity score [14],drug sensitivity score [15],drug sensitivity score [16],drug sensitivity score [17],drug sensitivity score [18],drug sensitivity score [19],drug sensitivity score [20],drug sensitivity score [21],drug sensitivity score [22],drug sensitivity score [23],drug sensitivity score [24]
Cc1ccc(C(=O)N(CCCN)[C@@H](c2oc3cc(Cl)ccc3c(=O)c2Cc2ccccc2)C(C)C)cc1 (max concentration tested 100 nM),5.6 ± 6.5,87.1,2.24,-2.08 ± 8.3,76,5.16,-19.5,26.9,7.2,0,0,0,0,0,0,0.0057 ± 0.0081,19,0,0,18.9,0,0,6.42,0
C[C@]12O[C@H](C[C@]1(O)CO)n1c3ccccc3c3c4c(c5c6ccccc6n2c5c31)CNC4=O [Lestaurtinib] (max concentration tested 1000 nM),76.7 ± 2.5,68.4,54.5,96.6 ± 1.5,26.8,62.3,51.8,45.7,54.4,1.52 ± 2.1,0.547,1.63,0.0333,0,0.556,9.04 ± 0.52,7.66,5.07,11.7 ± 0.16,3.41,6.44,13.2,5.63,11.2
O=P1(N(CCCl)CCCl)NCCCO1 (configuration not stated) [Cyclophosphamide] (max concentration tested 40000 nM),-7.33 ± 17,-7.77,-1.7,-8.093 ± 0.056,3.85,-3.77,-1.29,-15,8.38,2.5 ± 3.5,0,0,0,0,0,0,0,0,0,0,0,0,0,0
CC1(C)CCC(c2ccc(Cl)cc2)=C(CN2CCN(c3ccc(C(=O)NS(=O)(=O)c4ccc(N[C@H](CCN5CCOCC5)CSc5ccccc5)c(S(=O)(=O)C(F)(F)F)c4)cc3)CC2)C1 [Navitoclax] (max concentration tested 10000 nM),47.8 ± 0.54,32.7,11.3,20.7 ± 5.9,34.2,24.4,53.1,3.02,23.8,16 ± 1.1,3.15,5.52,11.8,0,5.42,6.14 ± 0.43,3.94,0.0007,0.978 ± 0.8,4.22,0.561,5.16,0,2.32
c1ccc2c(CCNc3ccc(Nc4ccncc4)cc3)c[nH]c2c1 [Serdemetan] (max concentration tested 10000 nM),93.39 ± 0.52,96.2,78.5,100.5 ± 0.77,92.5,99.5,70.3,95.3,65.5,4.77 ± 0.64,3.19,12.5,0,3.27,0.111,8.56 ± 0.85,4.57,5.45,10.8 ± 0.46,11.6,12.2,7.15,6.09,6.36
Oc1ncnc2[nH]ncc12 [Allopurinol] (max concentration tested 10000 nM),-4.6 ± 1.9,8.43,6.65,-1.67 ± 0.31,8.22,-3.79,1.63,6.72,5.09,0,0,0,0,0,0,0,0,0,0,0,0,0,0,0
Cn1c(Nc2ccc(C(F)(F)F)cc2)nc2cc(Oc3ccnc(-c4ncc(C(F)(F)F)[nH]4)c3)ccc21 [RAF265] (max concentration tested 1000 nM),43.6 ± 6,22.3,40.9,51.9 ± 1.2,30.2,33.1,68.9,52.2,70.8,0,0,0,0,0,0,4.23 ± 0.6,1.56,3.93,5.79 ± 0.67,2.73,3.46,14.4,4.44,11.2
OC[C@H]1O[C@@H](n2cnc3c2N=CNC[C@H]3O)C[C@@H]1O [Pentostatin] (max concentration tested 10000 nM),-4.44 ± 9.6,8.51,-3.81,-16.1 ± 7.5,9.08,-0.684,0.65,6.06,4.07,0,0,0,0,0,0,0,0,0,0,1.08,0,0,0,0
CC(=O)OC[C@H]1O[C@@H]([S-])[C@H](OC(C)=O)[C@@H](OC(C)=O)[C@@H]1OC(C)=O.CCP(CC)CC.[Au+] [Auranofin] (max concentration tested 2500 nM),25.1 ± 9.3,99.9,79.9,94.62 ± 0.92,91.7,66.9,95.2,75.4,94.8,0.0037 ± 0.0052,3.5,0.171,7.25,1.15,7.83,1.36 ± 1,9.71,5.55,8.14 ± 2,5.04,3.73,8.02,4.86,8.86
C#Cc1cccc(Nc2ncnc3cc(OCCOC)c(OCCOC)cc23)c1 [Erlotinib] (max concentration tested 10000 nM),26.3 ± 10,55.9,33.2,54.5 ± 2.7,56.7,31.1,74.7,48.6,73.1,0,0,0,0,0,0,1.85 ± 2,5.08,2.29,3.86 ± 0.29,5.25,1.41,5.39,3.63,5.2
COc1cc2nccc(Oc3ccc(NC(=O)C4(C(=O)Nc5ccc(F)cc5)CC4)cc3)c2cc1OC [Cabozantinib] (max concentration tested 1000 nM),27.7 ± 7.5,10.9,13.4,14 ± 4.9,0.14,21.3,8.9,23,13.2,0,0,0,0,0,0,4.78 ± 0.14,0.13,0.238,0.552 ± 0.78,0,2.2,0,1.89,0.225
COC(=O)c1ccc2c(c1)NC(=O)/C2=C(\Nc1ccc(N(C)C(=O)CN2CCN(C)CC2)cc1)c1ccccc1 [Nintedanib] (max concentration tested 10000 nM),-3.03 ± 4,63.5,2.06,-7.48 ± 1.2,39.7,2.22,-4.16,45.7,0.553,0,0,0,0,0.43,0,0,2.94,0,0,3.79,0,0,1.83,0
Cc1cccc(-c2nn3c(c2-c2ccnc4ccc(C(N)=O)cc24)CCC3)n1 [Galunisertib] (max concentration tested 1000 nM),9.64 ± 5.1,-22,12.7,5.62 ± 8.5,-12.1,-1.47,10.8,3.21,6.58,0.0896 ± 0.13,0,0,0,0,0,0,0,0.276,0.00835 ± 0.012,0,0,0,0,0
